Laboratory results published in publication doi:10.1101/2023.05.15.540887, “Comparative analysis of drug-like EP300/CREBBP acetyltransferase inhibitors” (bioRxiv, 2023).

Tested on: histone H3 acetylation in MCF-7 cells
Assay: Western blot analysis of histone acetylation (H3K18Ac, H3K27Ac, H3K23Ac) in MCF-7 cells
Assay type: cell-based, human
Conditions: 3 h, 8 nM – 5 μM, compared among 1-3
Experimental: Next, we sought to quantitatively benchmark the properties of 1-3 in living cells. EP300 and CREBBP modify a wide variety of substrates in biochemical experiments and upon ectopic overexpression.[2] However, two well-characterized cellular histone lysine substrates of these enzymes are H3K18 and H3K27.[26] Even though H3K18Ac is the more abundant of the two markers, H3K27Ac is also of great interest due to its association with active enhancer regions. […] Cells were treated with escalating doses of 1-3 and harvested at 3 h to avoid overt cytotoxicity and allow the direct effects on acetylation to be observed (Fig. 3a). […] Control experiments indicated levels of H3K23Ac, which is not regulated by EP300/CREBBP, were not affected.
MCF-7 cells were plated in 1700 µL culture medium at 1 x 10^6 cells per well in 6-well dishes. After 16-24 h cells were treated with 300 µL of 1-3-containing media to yield a final concentration of 8 nM, 40 nM, 200 nM, 1 µM, or 5 µM EP300/CREBBP inhibitor (0.1% final concentrations of DMSO). Controls were treated with vehicle DMSO (0.1%). […]
Histone samples were quantified using the Precision Red Protein Assay (Cytoskeleton #ADV02). […]

C[C@H](CN[C@@H](C(=O)Nc1ccc(-c2cnn(C)c2)cn1)c1ccccc1)c1ccc(C#N)cc1 [CPI-1612]
inhibition of histone acetylation (H3K18Ac, H3K27Ac), Western blot: most potent activity
